Laboratory results: patent US8785412B2, “Method for inducing cancer cell apoptosis or inhibiting the cancer cell migration” (National Tsing Hua University, priority 2011, dated 2014)

Legend:
[1] = test system: Hep3B liver cancer cells; experiment: MTT cell viability assay, Hep3B; format: cell-based
Text: (§1) Further, we used 3-(4,5-dimethylthiazol-2-yl)-2,5-diphenyltetrazolium bromide (MTT) assay to examine whether the knockdown of hRPIA reduces cancer cell viability. […] A similar data was obtained in PLC5 and HepG2 (FIG. 3B and FIG. 3C respectively).
(§2) Further, we used 3-(4,5-dimethylthiazol-2-yl)-2,5-diphenyltetrazolium bromide (MTT) assay to examine whether the over-expression of hRPIA in cancer cells induces cancer cell viability. […] A similar data was obtained in PLC5 and HepG2 (FIG. 7B and FIG. 7C respectively).
(§3) To examine the influence of chemotherapeutic agents on cell growth of liver cancer cell after knocking down of hRPIA, we used specific siRNA to knockdown hRPIA expression and then added 5-fluorouracil (5-FU) by 0, 5, 15, 25 μg/mL into Hep3B, PLC5 and HepG2. Further, we used 3-(4,5-dimethylthiazol-2-yl)-2,5-diphenyltetrazolium bromide (MTT) assay to examine whether the over-expression of hRPIA in cancer cells induces cancer cell viability.

[2] = test system: caspase-3; experiment: Western blot of caspase-3 after hRPIA siRNA knockdown; format: cell-based
Text: (§4) To examine whether the knockdown of hRPIA in hepatic cancer cells induces cell apoptosis, we used specific siRNA which sequence is: […] (SEQ NO. 1) and; […] (SEQ NO. 2) to knock down hRPIA expression. Next, we used western blot to examine the protein level of caspase-3 and β-catenin. […] A similar data was obtained in PLC5 and HepG2 (FIG. 14B and FIG. 14C respectively).
(§5) To examine whether the knockdown of hRPIA in colon cancer cells induces cell apoptosis, we used specific siRNA which sequence is: […] (SEQ NO. 1) and; […] ([…]) to knock down hRPIA expression. Next, we used western blot to examine the protein level of caspase-3 and β-catenin.

[3] = test system: HepG2 liver cancer cells; experiment: MTT cell viability assay, HepG2; format: cell-based; conditions: HepG2, 5-FU 0, 5, 15, 25 μg/mL, vs si-negative control transfected cells
Text: as §1, §2, §3

[4] = test system: PLC5 liver cancer cells; experiment: MTT cell viability assay, PLC5; format: cell-based; conditions: PLC5, 5-FU 0, 5, 15, 25 μg/mL, vs si-negative control transfected cells
Text: as §1, §2, §3

[5] = test system: SW620 colon cancer cells; experiment: MTT cell viability assay, SW620; format: cell-based
Text: (§6) Further, we used 3-(4,5-dimethylthiazol-2-yl)-2,5-diphenyltetrazolium bromide (MTT) assay to examine whether the knockdown of hRPIA reduces cancer cell viability. […] A similar data was obtained in SW620 (FIG. 5B).
(§7) Further, we used 3-(4,5-dimethylthiazol-2-yl)-2,5-diphenyltetrazolium bromide (MTT) assay to examine whether the over-expression of hRPIA in cancer cells induces cancer cell viability. […] A similar data was obtained in SW620 (FIG. 9B).
(§8) To examine the influence of chemotherapeutic agents on cell growth of colon cancer cell after knocking down of hRPIA, we used specific siRNA to knock down hRPIA expression and then added 5-fluorouracil (5-FU) by 0, 5, 15, 25 μg/mL into SW480 and SW620. Further, we used 3-(4,5-dimethylthiazol-2-yl)-2,5-diphenyltetrazolium bromide (MTT) assay to examine whether the over-expression of hRPIA in cancer cells induces cancer cell viability.

[6] = test system: β-catenin; experiment: Western blot of β-catenin after hRPIA siRNA knockdown; format: cell-based
Text: as §4, §5

[7] = test system: SW480; experiment: Wound healing assay (cell motility), SW480; format: cell-based; conditions: SW480, 0, 14 and 24 hours
Description: To examine whether the knockdown of hRPIA in colon cancer cells reduces cell motility, we used specific siRNA to knock down hRPIA expression. To quantify the cancer cell survival rate under the treatment of siRNA against hRPIA which sequence is: […] (SEQ NO. 1) and; […] (SEQ NO. 2) for 0, 14 and 24 hours, we perform wound healing assay to examine the cell motility of hRPIA in SW480 which were treated with siRNA-hRPIA (cultured in 10% fetal bovine serum with DMEM in 37 °C, 5% CO2 for 48 hours) as shown in FIG. 13 respectively. As shown in the figs, the cell motility is lower after adding siRNA.

[8] = test system: SW480 colon cancer cells; experiment: MTT cell viability assay, SW480; format: cell-based; conditions: for cell viability by MTT assay after hRPIA knockdown: SW480, 20 nM siRNA
Text: as §6, §7, §8

[9] = test system: hRPIA; experiment: Western blot of hRPIA protein level after siRNA knockdown or pcDNA3-hRPIA transfection; format: cell-based, human; conditions: siRNA knockdown, 48 hours
[10] = test system: Hep3B; experiment: Wound healing assay (cell motility), Hep3B; format: cell-based; conditions: Hep3B, 0, 18 and 24 hours
Description: To examine whether the knockdown of hRPIA in cancer cells reduces cell motility, we used specific siRNA to knock down hRPIA expression. To quantify the cancer cell survival rate under the treatment of siRNA against hRPIA which sequence is: […] (SEQ NO. 1) and; […] (SEQ NO. 2) for 0, 18 and 24 hours, we perform wound healing assay to examine the cell motility of hRPIA in Hep3B which were treated with siRNA-hRPIA (cultured in 10% fetal bovine serum with DMEM in 37° C., 5% CO2 for 48 hours) as shown in FIG. 12 respectively. As shown in the figs, the cell motility is lower after adding siRNA.

siRNA-hRPIA: siRNA against hRPIA, sequence UUCACUUCACUCCAUUUGUGUACCC (SEQ NO. 1) and GGGUACACAAAUGGAGUGAAGUGAA (SEQ NO. 2) (listed as RNA, chemistry not given here)
cell viability by MTT assay after hRPIA knockdown ([1]; 20 nM siRNA): significant reduction in cell viability | cytotoxicity caused by 5-fluorouracil after hRPIA knockdown (MTT) ([1]; 5-FU 0, 5, 15, 25 μg/mL, vs si-negative control transfected cells): significantly enhanced the cytotoxicity | caspase-3 protein level (western blot) ([2]; Hep3B, 48 hours): increased activity of caspase-3 | caspase-3 protein level (western blot) ([2]; HepG2): increases caspase-3 expression | caspase-3 protein level (western blot) ([2]; PLC5): increases caspase-3 expression | caspase-3 protein level (western blot) ([2]; SW480, 48 hours): increased activity of caspase-3 | cytotoxicity caused by 5-fluorouracil after hRPIA knockdown (MTT) [3]: significantly enhanced the cytotoxicity | cytotoxicity caused by 5-fluorouracil after hRPIA knockdown (MTT) [4]: significantly enhanced the cytotoxicity | cell viability by MTT assay after hRPIA knockdown ([5]; SW620, 20 nM siRNA): significantly reduced cell viability | cytotoxicity caused by 5-fluorouracil after hRPIA knockdown (MTT) ([5]; SW620, 5-FU 0, 5, 15, 25 μg/mL, vs si-negative control transfected cells): significantly enhanced the cytotoxicity | β-catenin protein level (western blot) ([6]; Hep3B): slightly reduction | β-catenin protein level (western blot) ([6]; HepG2): significant reduction | β-catenin protein level (western blot) ([6]; PLC5): slightly reduction | β-catenin protein level (western blot) ([6]; SW480): significant reduction | cell motility (wound healing assay) [7]: lower | cell viability by MTT assay after hRPIA knockdown [8]: significant reduction in cell viability | cell viability by MTT assay after hRPIA knockdown ([8]; listed as siRNAs against hRPIA): significantly reduced cell viability | cytotoxicity caused by 5-fluorouracil after hRPIA knockdown (MTT) ([8]; SW480, 5-FU 0, 5, 15, 25 μg/mL, vs si-negative control transfected cells): significantly enhanced the cytotoxicity | hRPIA protein level (western blot) ([9]; Hep3B liver cancer cells, vs si-negative control): lower | hRPIA protein level (western blot) ([9]; HepG2 liver cancer cells): lower | hRPIA protein level (western blot) ([9]; PLC5 liver cancer cells, vs si-negative control): lower | hRPIA protein level (western blot) ([9]; SW480 colon cancer cells): lower | hRPIA protein level (western blot) ([9]; SW620 colon cancer cells): lower | cell motility (wound healing assay) [10]: lower
